Measured values reported in patent EP3696177A1, “HETEROCYCLIC COMPOUNDS FOR THE CONTROL OF INVERTEBRATE PESTS” (BASF SE, priority 2019, dated 2020).
Where two headings read alike, the source gives them in different places.

What was measured:
Assay type in all cases: in vivo
Tetranychus kanzawai = experiment: Red spider mite (Tetranychus kanzawai) spray test on cowpea beans; details: 72 h, read-out: mortality in comparison with untreated controls
Description: The active compound is dissolved at the desired concentration in a mixture of 1:1 (vol:vol) distilled water: acetone. Add surfactant (Kinetic) is added at a rate of 0.01% (vol/vol). The test solution is prepared at the day of use.
Potted cowpea beans of 4-5 days of age are cleaned with tap water and sprayed with 1-2 ml of the test solution using air driven DeVilbiss® hand atomizer at 20- 30 psi (≈ 1,38 to 2,07 bar). The treated plants are allowed to air dry and afterwards inoculated with 30 or more mites by clipping a cassava leaf section from rearing population. Treated plants are placed inside a holding room at about 25-26°C and about 65-70% relative humidity. Estimate percent mortality is assessed 72 hours after treatment.

Nezara viridula = experiment: Green soldier stink bug (Nezara viridula) soybean pod spray test; details: 120 h, late 3rd instar N. viridula, after 5 days, read-out: mortality in comparison with untreated controls
Description: The active compound is dissolved at the desired concentration in a mixture of 1:1 (vol:vol) distilled water: aceteone. Surfactant (Kinetic) is added at a rate of 0.01% (vol/vol).The test solution is prepared at the day of use.
Soybean pods are placed in 90 x 50 mm glass Petri dishes lined with moistened filter paper and inoculated with ten late 3rd instar N. viridula. Using a hand atomizer, an approximately 2 ml solution is sprayed into each Petri dish. Treated set-up is kept at about 25-26°C and relative humidity of about 65-70%. Percent mortality is recorded after 5 days.

Megoura viciae = experiment: Vetch aphid (Megoura viciae) broad bean leaf disk test; details: foliar, 120 h, read-out: mortality in comparison with untreated controls
Description: For evaluating control of vetch aphid (Megoura viciae) through contact or systemic means the test unit consisted of 24-well-microtiter plates containing broad bean leaf disks.
The compounds were formulated using a solution containing 75% v/v water and 25% v/v DMSO. Different concentrations of formulated compounds were sprayed onto the leaf disks at 2.5 µl, us-ing a custom built micro atomizer, at two replications.
After application, the leaf disks were air-dried and 5 - 8 adult aphids placed on the leaf disks in-side the microtiter plate wells. The aphids were then allowed to suck on the treated leaf disks and incubated at about 23 + 1°C and about 50 + 5 % relative humidity for 5 days. Aphid mortality and fecundity was then visually assessed.

Heliothis virescens = experiment: Tobacco budworm (Heliothis virescens) insect diet microtiter plate test; details: 120 h, read-out: mortality in comparison with untreated controls (egg and larval mortality)
Description: For evaluating control of tobacco budworm (Heliothis virescens) the test unit consisted of 96-well-microtiter plates containing an insect diet and 15-25 H. virescens eggs.
The compounds were formulated using a solution containing 75% v/v water and 25% v/v DMSO. Different concentrations of formulated compounds were sprayed onto the insect diet at 10 µl, us-ing a custom built micro atomizer, at two replications.
After application, microtiter plates were incubated at about 28 + 1°C and about 80 + 5 % relative humidity for 5 days. Egg and larval mortality was then visually assessed.

Plutella xylostella = experiment: Diamond back moth (Plutella xylostella) cabbage leaf disc dip test; details: foliar, 72 h, read-out: mortality in comparison with untreated controls
Description: The active compound is dissolved at the desired concentration in a mixture of 1:1 (vol:vol) distilled water: acetone. Surfactant (Kinetic) is added at a rate of 0.01% (vol/vol). The test solution is pre-pared at the day of use.
Cabbage leaf discs (60mm in diameter) are dipped in test solution and air-dried. Treated leaves are placed in petri dishes lined with moistened filter paper and inoculated with ten 3rd instar larvae. Mortality is recorded 72 hours after treatment. Feeding damage is also recorded using a scale of 0-100%.

Aedes aegypti = experiment: whole plant or invertebrate; details: 48 h, A. aegypti larvae, incubated 2 days, read-out: mortality in comparison with untreated controls (larval mortality)
Description: For evaluating control of yellow fever mosquito (Aedes aegypti) the test unit consisted of 96-well-microtiter plates containing 200µl of tap water per well and 5-15 freshly hatched A. aegypti larvae.
The active compounds were formulated using a solution containing 75% (v/v) water and 25% (v/v) DMSO. Different concentrations of formulated compounds or mixtures were sprayed onto the insect diet at 2.5µl, using a custom built micro atomizer, at two replications.
After application, microtiter plates were incubated at 28 + 1°C, 80 + 5 % RH for 2 days. Larval mortality was then visually assessed.

Anthonomus grandis = experiment: Boll weevil (Anthonomus grandis) insect diet microtiter plate test; details: 120 h, read-out: mortality in comparison with untreated controls (egg and larval mortality)
Description: For evaluating control of boll weevil (Anthonomus grandis) the test unit consisted of 96-well-microtiter plates containing an insect diet and 5-10 A. grandis eggs.
The compounds were formulated using a solution containing 75% v/v water and 25% v/v DMSO. Different concentrations of formulated compounds were sprayed onto the insect diet at 5 µl, using a custom built micro atomizer, at two replications.
After application, microtiter plates were incubated at about 25 + 1°C and about 75 + 5 % relative humidity for 5 days. Egg and larval mortality was then visually assessed.

Caenorhabditis elegans = Caenorhabditis elegans liquid diet microtiter plate test; details: 96 h, read-out: mortality in comparison with untreated controls (nematode motility (mortality))
Description: For evaluating control of Caenorhabditis elegans through contact or systemic means the test unit consisted of 96-well-microtiter plates containing a liquid diet.
The compounds or mixtures were formulated using a solution containing 75% water and 25% DMSO. Different concentrations of formulated compounds were sprayed into the microtiter plate wells at 5µl per well, using a custom built micro atomizer, at two replications. Mixed instar 60-100 C. elegans were transferred into the micro-titer plate wells. After application, the nematodes were incubated at 18 + 1°C, 70 + 5 % RH for 4 days. Nematode motility (mortality) was then visually assessed.

Nephotettix virescens = experiment: Rice green leafhopper (Nephotettix virescens) spray test on rice seedlings; details: adults, after 72 hours, read-out: mortality in comparison with untreated controls
Description: Four to five-week old rice seedlings with cut upper leaf portion are cleaned and washed 24 hours before spraying. The active compounds are formulated in 1:1 acetone:water (vol:vol), and 0.01% vol/vol surfactant (Kinetic) is added. Potted rice seedlings are sprayed with 5-6 ml test solution, air dried, covered with Mylar cages and inoculated with 10 adults. Treated rice plants are kept at about 28-29°C and relative humidity of about 50-60%. Percent mortality is recorded after 72 hours.

dichromothrips corbetti = experiment: Orchid thrips floral-immersion test; details: 72 h, read-out: mortality in comparison with untreated controls
Description: Dichromothrips corbetti adults used for bioassay are obtained from a colony maintained continu-ously under laboratory conditions. For testing purposes, the test compound is diluted in a 1:1 mix-ture of acetone:water (vol:vol), plus Kinetic at a rate of 0.01% v/v.
Thrips potency of each compound is evaluated by using a floral-immersion technique. Each orchid petal is dipped into treatment solution and allowed to dry in Petri dishes. Treated petals are placed into individual re-sealable plastic along with about 20 adult thrips. All test arenas are held under dark condition and a temperature of about 28°C for duration of the assay. The percent mor-tality is recorded 72 hours after treatment.

Aphis craccivora = experiment: Cowpea aphid (Aphis craccivora) spray test on potted cowpea plants; details: aphids of various stages, after 72 hours, read-out: mortality in comparison with untreated controls
Description: The active compound is dissolved at the desired concentration in a mixture of 1:1 (vol: vol) distilled water: acetone. Surfactant (Kinetic) is added at a rate of 0.01% (vol/vol). The test solution is prepared at the day of use.
Potted cowpea plants are colonized with approximately 30 - 50 aphids of various stages by man-ually transferring aphid-infested leaf clippings 24 hours before application. Plants are sprayed with the test solutions using a DeVilbiss® hand atomizer at 20- 30 psi (≈ 1.38 to 2.07 bar) after the pest population has been checked. Treated plants are maintained on light carts at about 25- 26°C. Estimate percent mortality is assessed after 72 hours.

Myzus persicae = experiment: Green peach aphid (Myzus persicae) artificial diet/membrane systemic test; details: 72 h, read-out: mortality in comparison with untreated controls
Text: For evaluating control of green peach aphid (Myzus persicae) through systemic means the test unit consisted of 96-well-microtiter plates containing liquid artificial diet under an artificial membrane.
The compounds were formulated using a solution containing 75% v/v water and 25% v/v DMSO. Different concentrations of formulated compounds were pipetted into the aphid diet, using a cus-tom built pipetter, at two replications.
After application, 5 - 8 adult aphids were placed on the artificial membrane inside the microtiter plate wells. The aphids were then allowed to suck on the treated aphid diet and incubated at about 23 + 1°C and about 50 + 5 % relative humidity for 3 days. Aphid mortality and fecundity was then visually assessed.

Cc1cc(C2=NOC(c3cc(Cl)c(F)c(Cl)c3)(C(F)(F)F)C2)ccc1C(=O)NC1SC(=O)N(C(C)C)C1=O (stereo not shown) [Compound I-1-11]
> 75%: mortality at 300 ppm (Tetranychus kanzawai; topical) | mortality at 300 ppm (Nezara viridula) | mortality at 2500 ppm (Megoura viciae) | mortality at 2500 ppm (Heliothis virescens) | mortality at 300 ppm (Plutella xylostella) | mortality at 2500 ppm (Aedes aegypti) | mortality at 2500 ppm (Anthonomus grandis) | mortality at 2500 ppm (Caenorhabditis elegans) | mortality at 300 ppm (Nephotettix virescens) | mortality at 300 ppm (dichromothrips corbetti) | mortality at 300 ppm (Aphis craccivora) | mortality at 2500 ppm (Myzus persicae)

CN1COC(CNC(=O)c2ccc(C3=NOC(c4cc(Cl)c(F)c(Cl)c4)(C(F)(F)F)C3)c3c2CCC3)C1=O (stereo not shown) [Compound I-3-1]
> 75%: mortality at 300 ppm (Tetranychus kanzawai; topical) | mortality at 300 ppm (Nezara viridula) | mortality at 2500 ppm (Megoura viciae) | mortality at 2500 ppm (Heliothis virescens) | mortality at 300 ppm (Plutella xylostella) | mortality at 2500 ppm (Aedes aegypti) | mortality at 2500 ppm (Anthonomus grandis) | mortality at 2500 ppm (Caenorhabditis elegans) | mortality at 300 ppm (Nephotettix virescens) | mortality at 300 ppm (dichromothrips corbetti) | mortality at 300 ppm (Aphis craccivora) | mortality at 2500 ppm (Myzus persicae)

CCN1C(=O)SC(NC(=O)c2ccc(C3=NCC(c4cc(Cl)c(F)c(Cl)c4)(C(F)(F)F)C3)c3c2CCC3)C1=O (stereo not shown) [Compound I-2-1]
> 75%: mortality at 300 ppm (Tetranychus kanzawai; topical) | mortality at 300 ppm (Nezara viridula) | mortality at 2500 ppm (Megoura viciae) | mortality at 2500 ppm (Heliothis virescens) | mortality at 300 ppm (Plutella xylostella) | mortality at 2500 ppm (Aedes aegypti) | mortality at 2500 ppm (Anthonomus grandis) | mortality at 2500 ppm (Caenorhabditis elegans) | mortality at 300 ppm (Nephotettix virescens) | mortality at 300 ppm (dichromothrips corbetti) | mortality at 300 ppm (Aphis craccivora) | mortality at 2500 ppm (Myzus persicae)

CN1COC(CNC(=O)c2ccc(C3=NOC(c4cc(Cl)c(F)c(Cl)c4)(C(F)(F)F)C3)cc2Cl)C1=O (stereo not shown) [Compound I-3-5, 2-chloro-4-[5-(3,5-dichloro-4-fluoro-phenyl)-5-(trifluoromethyl)-4H-isoxazol-3-yl]-N-[(3-methyl-4-oxo-oxazolidin-5-yl)methyl]benzamide]
> 75%: mortality at 300 ppm (Tetranychus kanzawai) | mortality at 300 ppm (Nezara viridula) | mortality at 2500 ppm (Megoura viciae) | mortality at 2500 ppm (Heliothis virescens) | mortality at 300 ppm (Plutella xylostella) | mortality at 2500 ppm (Aedes aegypti) | mortality at 2500 ppm (Anthonomus grandis) | mortality at 2500 ppm (Caenorhabditis elegans) | mortality at 300 ppm (Nephotettix virescens) | mortality at 300 ppm (dichromothrips corbetti) | mortality at 300 ppm (Aphis craccivora) | mortality at 2500 ppm (Myzus persicae)

CCN1C(=O)SC(NC(=O)c2ccc(C3=NOC(c4cc(Cl)cc(Cl)c4)(C(F)(F)F)C3)cc2C)C1=O (stereo not shown) [Compound I-1-5]
> 75%: mortality at 300 ppm (Tetranychus kanzawai; topical) | mortality at 300 ppm (Nezara viridula) | mortality at 2500 ppm (Megoura viciae) | mortality at 2500 ppm (Heliothis virescens) | mortality at 300 ppm (Plutella xylostella) | mortality at 2500 ppm (Aedes aegypti) | mortality at 2500 ppm (Anthonomus grandis) | mortality at 300 ppm (Nephotettix virescens) | mortality at 300 ppm (dichromothrips corbetti) | mortality at 300 ppm (Aphis craccivora) | mortality at 2500 ppm (Myzus persicae)

CN1COC(CNC(=O)c2ccc(C3=NOC(c4cc(Cl)cc(C(F)(F)F)c4)(C(F)(F)F)C3)c3c2CCC3)C1=O (stereo not shown) [Compound I-3-3]
> 75%: mortality at 300 ppm (Tetranychus kanzawai; topical) | mortality at 300 ppm (Nezara viridula) | mortality at 2500 ppm (Megoura viciae) | mortality at 2500 ppm (Heliothis virescens) | mortality at 300 ppm (Plutella xylostella) | mortality at 2500 ppm (Aedes aegypti) | mortality at 2500 ppm (Anthonomus grandis) | mortality at 300 ppm (Nephotettix virescens) | mortality at 300 ppm (dichromothrips corbetti) | mortality at 300 ppm (Aphis craccivora) | mortality at 2500 ppm (Myzus persicae)
